Assay results published in patent US20230312577A1, “DUAL KINASE-BROMODOMAIN INHIBITORS” (MONASH UNIVERSITY, priority 2020, published 2023).

Columns and labels:
[1] = system: Eμ-Myc lymphoma cells; experiment: In vivo therapeutic assessment, Eμ-Myc lymphoma transplant; set-up: species or system mouse; settings: 45 mg/kg IP, 5 days per week, 3 weeks
Description: For transplantation of Eμ-Myc lymphomas in vivo, cohorts of 6-8 week old B6.SJL-PtprcPepc/BoyJ (B6.CD45.1) mice were inoculated via tail vein injection with 5×10^5 Eμ-Myc lymphoma cells (C57BL/6 (CD45.2)). Cpd 010 and vehicle controls (30% HPBCD) were prepared as above. Three days after lymphoma inoculation, intraperitoneal (IP) injection of compound 10 (45 mg/kg), or vehicle (30% HPBCD) was administered 5 days per week, for a total of 3-weeks of therapy. Detection of tumour cells on peripheral blood was carried out by flow cytometric analysis using the following antibodies; fixable Viability dye-AmCyan (Zom-bie Aqua™ Fixable Viability Kit, BioLegend), anti-mouse CD19-PE (ThermoFisher Scientific, #12-0193-82), anti-mouse CD45R (B220)-APC (ThermoFisher Scientific, #RA3-6B2), anti-mouse CD45.1-PerCP-Cy™5.5 (ThermoFisher Scientific, #A20), anti-mouse CD45.2-FITC (BioLegend, #104). Data were collected on a BD LSR-Fortessa X20 (BD Biosciences). The data were analysed using FlowJo Software, version 10.0.7 (Tree Star).

[2] = system: Vk*MYC myeloma cells; experiment: In vivo therapeutic assessment, Vk*MYC multiple myeloma mouse model; settings: once daily, 5 days a week, 3 weeks
Description: For Vk*MYC multiple myeloma mouse models, wild type C57/B16 mice were irradi-ated with 2 fractions of 3.3Gy (Gammacell® 40 caesium source, Atomic Energy of Canada Ltd., Ontario, Canada) prior to transplantation of Vk*MYC myeloma cells (2.4×10^5). Mice were monitored for tumour progression by measuring M-proteins via serum protein electropho-resis (SPEP). Mice were treated with 3 weeks of Cpd 010 or vehicle once daily (5 days a week) for 3 weeks when their average SPEP has reached 7-10%. Serial measurement of SPEP was carried out during and post therapy. Overall survival was recorded.

[3] = target: T1, BRD4 (Homo sapiens, UniProt O60885); experiment: Chromatin immunoprecipitation and sequencing analysis in OPM2 cells; assay type: cell-based; set-up: endogenous in cells; host or cells: OPM2; settings: 250 nM, 2 h
Description: OPM2 cells (4×10^6) were treated with 250 nM of Cpd 010 or DMSO control for 2 h. Cells were cross-linked, and nuclei were lysed to achieve a mean DNA fragment size of 300-500 bp. Immunoprecipitation was performed using protein A/G magnetic beads for at least 12 h at 4° C. using the following antibodies: anti-BRD4 anti-H3K27Ac, anti-RNA polymerase II. Reverse crosslinking of DNA was performed, and DNA was purified using QIAquick PCR purification kit. The KAPA Hyper Prep Kit was used to generate libraries as per the manufacturer's instruction, which sequenced on the NextSeq (Illumina; 75 bp SE).

[4] = system: OPM2 cells; experiment: Synergy between PI3K and BET inhibitors, apoptosis assay (TMRE) and synergy score; assay type: cell-based, human
Description: An apoptosis assay using TMRE stain by flow cytometry was performed in OPM2 cells with indicated compounds. […] Using Synergyfinder web application (https://synergyfinder.fimm.fi), synergy score was calculated. Zero Interaction Potency (ZIP) reference models was utilised.

[5] = system: Eμ-Myc lymphoma cells; experiment: In vivo tumour burden from a single dose, Eμ-Myc lymphoma; set-up: species or system mouse
Description: (§1) B6.SJL-PtprcPepc/BoyJ (B6.CD45.1) mice were inoculated via tail vein injection with 5×10^5 Eμ-Myc lymphoma cells and left untreated for 12-14 days. A single injection of Cpd 010 at 35-45 mg/kg, or vehicle control (30% HPBCD) was administered. Half of the mice (n=6) were harvested 6 h post injection while the other half (n=6) were harvested 16 h later. Assessment of tumour burden was carried out on single cell suspension of harvested lymph nodes, spleen and blood by flow cytometry using antibodies as above. PD-L1 MFI was assessed by flow cytometry in harvested LNs using anti-mouse PD-L1-PE (ThermoFisher Scientific, clone MIH5) or isotype control antibodies (Mouse IgG2b PE, #559529). Harvested LNs were also washed in PBS and lysates were collected using Laemmli Buffer (AlfaAeser #J61337). They were processed as per our Western Blot protocol (see above) before they were probed for primary pAKT antibodies. Spleen size and weights were also measured between the treatment groups.

[6] = system: PD-L1 and pAKT (PI3K substrate); experiment: In vivo target engagement from a single dose (PD-L1, pAKT), Eμ-Myc lymphoma; set-up: species or system mouse; settings: single dose 35-45 mg/kg
Description: as §1
In terms of target engagement, PD-L1 expression in the tumour cells were measured in the harvested LN and spleen. As expression of the Myc transgene in Eμ-Myc is not BET-de pendent, MYC cannot be measured as a read-out of BET inhibition, therefore PD-L1 was used as an indicator for BET inhibition. […] Similarly, pAKT (PI3K substrate) was suppressed by Cpd 010 in the lysates made from harvested LN.

[7] = target: T1, BRD4; experiment: Cellular thermal shift assay (CETSA) in Ramos cells; assay type: cell-based; set-up: endogenous in cells; settings: 20 μM, 40 min, vs DMSO
Description: Ramos cells (human Burkitt lymphoma cell line) at 20×10^6 were washed in PBS followed by resuspension in 5 mL serum-free RPMI. They were treated either with Cpd 010 or DMSO at 20 μM for 40 min at 37° C. with 5% CO2. Cells were then collected, resuspended in PBS and separated into PCR tubes. They were heated at designated temperature for strictly 3 min followed by another 3 min at 25° C. on ABI Applied Biosystems 9902 Veriti PCR Thermal Cycler. Immediately, they were placed in liquid nitrogen for snap freezing. The samples were freeze-thawed until the final samples were place on ice. They were centrifuged and supernatants were collected. Loading dye was mixed and these were processed as per our Western Blot protocol (see above). The following primary antibodies were used; rabbit BRD4 (Cell Signaling, #13440), rabbit BRD2 (Cell Signaling, #5848), and mouse anti-β-actin (Sigma-Aldrich, clone AC-74).

[8] = system: OPM2 cells; experiment: Cell proliferation assay (ViaLight, cellular ATP); assay type: cell-based; settings: Homo sapiens, OPM-2, 120 h, 5 days, 5 μM to 1 nM
Method in brief: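 1×10^3 cells per well exposed to compounds at final 5 μM to 1 nM for 5 days. Viability read as cellular ATP by ViaLight luminescence, technical triplicates. GI50 computed from the dose–response.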

## CC(=O)N1c2ccc(-c3ccc(CNC(=O)c4cn5cc(-c6cnc(N)nc6)nc(N6CCOCC6)c5n4)cc3)cc2CC[C@@H]1C [Cpd 010, (S)-N-(4-(1-acetyl-2-methyl-1,2,3,4-tetrahydroquinolin-6-yl)benzyl)-6-(2-aminopyrimidin-5-yl)-8-morpholinoimidazo[1,2-a]pyrazine-2-carboxamide]
[1]
  curative response: 90%
[1]; p<0.0001
  survival: statistically significant survival benefit
[2]; SPEP
  tumour burden (M-proteins) on treatment: reduce tumour burden (M-proteins)
[2]; vehicle 196.5 days
  median survival: 243 days
[3]
  BRD4 and RNA Pol II at MYC locus: significant reduction in BRD4 and RNA Pol II
  displacement of BRD4 from chromatin: robust displace ment of BRD4
[4]
  induction of apoptosis: even more enhanced apoptosis compared to the combination of two drugs together
[5]; single dose 35-45 mg/kg
  size of the spleen: significantly reduced
[5]; single injection 35-45 mg/kg, 16 h
  number of tumour cells in peripheral blood and harvested spleen: marked reduction in number of tumour cells in peripheral blood and harvested spleen
[6]; harvested LN
  PD-L1 expression in tumour cells (indicator for BET inhibition): significantly reduced
[6]; lysates from harvested LN
  pAKT (PI3K substrate): suppressed
[7]
  clearance of BRD4 protein with increasing temperature: delayed clearance
[8]
  GI50: ≤ 100 nM
